# Assay: Test for the content of related substances (stability in solution, HPLC)
# Type: physicochemical
# Settings: dissolved in a solution
# Description: Experimental Example 1—Test for the Content of Related Substances […] Thereafter, the contents of related substances were measured by high-performance liquid chromatography (HPLC). The same procedure was repeated except that crystalline efinaconazole was used instead of the solid dispersion.
compound,measurement,setting,value
"C=C1CCN([C@H](C)[C@](O)(Cn2cncn2)c2ccc(F)cc2F)CC1 [Efinaconazole, (2R,3R)-2-(2,4-difluorophenyl)-3-(4-methylenepiperidin-1-yl)-1-(1H-1,2,4-triazol-1-yl)butan-2-ol]",content of related substances,"oven at 65° C., 0 (initial)",0
same,content of related substances,"oven at 65° C., 1 week",0.45%
same,content of related substances,"oven at 65° C., 2 weeks",0.54%
same,content of related substances,"oven at 65° C., 4 weeks",1.53%
same,content of related substances,"room temperature, 0 (initial)",0
same,content of related substances,"room temperature, 1 week",0.27%
same,content of related substances,"room temperature, 2 weeks",0.39%
same,content of related substances,"room temperature, 4 weeks",0.40%
